Test results published in patent US3985774A, “Purification of γ-oxo-2-dibenzofuranbutyric acid” (American Home Products Corporation, priority 1972, dated 1976).

How the values were obtained:
[1] = test system: gastrointestinal ulcers; assay: ulcerogenic activity in a modification of a known method; assay type: in vivo; conditions: therapeutic dose levels
[2] = test system: carragheenin paw edema; assay: carragheenin paw edema test; assay type: in vivo, rat; conditions: rats; for % INHIBITION of edema / EDEMA (results expressed in grams of mercury displaced): 3 h after carragheenin
Protocol: A. Winter, et al., Proc. Soc. Exp. Biol., lll, 544 (1962). […] A. Winter in "Non-Steroidal Anti-inflammatory Drugs", S. Garattine and M. N. G. Dukes, Eds., Excerpta Medica International Congress, Ser. No. 82, 1965, p. 190.
More particularly exemplified a substantial effect for γ-oxo-2-dibenzofuranbutyric acid is demonstrable at oral doses of 200 mg/kg or less in this paw edema test. In this test rats are treated with the test compound one hour before a 1% suspension of carragheenin in saline is injected into the subplantar area of the hind paw of the rat. Results are obtained by measuring the increase in paw volume caused by the resulting edema three hours later by plethysmography in mercury and expressing values as grams of mercury displaced. Control animals receive the vehicle only. The results are expressed as percent inhibition in edematous swelling calculated as [formula] where Δ control is the increase in volume measured in untreated controls and Δ treated is the increase in volume found in the treated animals.
The following table lists the results obtained for both γ-oxo-2-dibenzofuranbutyric acid (l) and its isomer ll.

[3] = test system: inflammatory conditions; assay: antiinflammatory activity (pharmacologic testing); assay type: in vivo; conditions: for antiinflammatory properties / activity: in vivo
[4] = solubility in water; assay type: physicochemical
[5] = antipyretic activity (standard pharmacologic test); conditions: in vivo
Text: (§1) The useful antiinflammatory, analgesic and antipyretic activities of the product of this invention is demonstrable in standard pharmacologic tests, for example, the test described by R. A. Turner in "Screening Method in Pharmacology", Academic Press, New York and London, 1965, pp. 152-163, pp. 100-117 and pp. 298-299, respectively.

[6] = analgesic activity (standard pharmacologic test); conditions: in vivo
Text: as §1

[7] = test system: warm-blooded animals; assay: toxicity / tolerance (acute toxicity tests and prolonged administration); conditions: in vivo

O=C(O)CCC(=O)c1ccc2oc3ccccc3c2c1 [γ-oxo-2-dibenzofuranbutyric acid]
formation of gastrointestinal ulcers [1]: does not cause formation of gastrointestinal ulcers
% INHIBITION of edema ([2]; Experiment A, 50 mg/kg, oral): 37%
EDEMA (results expressed in grams of mercury displaced) ([2]; Experiment A, 50 mg/kg, oral): 7.7 ± 0.88 grams of mercury displaced
% INHIBITION of edema ([2]; Experiment A, 100 mg/kg, oral): 54%
EDEMA (results expressed in grams of mercury displaced) ([2]; Experiment A, 100 mg/kg, oral): 5.7 ± 0.42 grams of mercury displaced
% INHIBITION of edema ([2]; Experiment A, 200 mg/kg, oral): 78%
EDEMA (results expressed in grams of mercury displaced) ([2]; Experiment A, 200 mg/kg, oral): 2.7 ± 0.36 grams of mercury displaced
% INHIBITION of edema ([2]; Experiment C, 100 mg/kg): 60%
EDEMA (results expressed in grams of mercury displaced) ([2]; Experiment C, 100 mg/kg): 4.8 ± 0.46 grams of mercury displaced
minimal effective dose ([2]; Rattus norvegicus, oral, read-out: oral dose at which a substantial effect is demonstrable): ≤ 200 mg/kg
activity compared with isomer ll (Student's t test) ([2]; paw edema test): significantly more active than the isomer ll
antiinflammatory activity compared with isomer ll ([3]; acid l versus isomer ll): somewhat more active
onset of action compared with isomer ll ([3]; acid l versus isomer ll): quicker onset of action
antiinflammatory properties / activity [3]: important antiinflammatory properties
antiinflammatory properties / activity ([3]; listed as acid l): have antiinflammatory activity
solubility in water [4]: only limited solubility in water
antipyretic activity [5]: possesses analgesic and antipyretic activity
analgesic activity [6]: possesses analgesic and antipyretic activity
side effects [7]: lack of side effects
therapeutic index [7]: highly favorable therapeutic index
tolerance [7]: exceptionally well tolerated
toxicity [7]: low order of toxicity

O=C(O)CCC(=O)c1ccc2c(c1)oc1ccccc12 [γ-oxo-3-dibenzofuranbutyric acid]
% INHIBITION of edema ([2]; Experiment B, 100 mg/kg): 5%
EDEMA (results expressed in grams of mercury displaced) ([2]; Experiment B, 100 mg/kg): 13.6 ± 1.38 grams of mercury displaced
% INHIBITION of edema ([2]; Experiment B, 200 mg/kg): 34%
EDEMA (results expressed in grams of mercury displaced) ([2]; Experiment B, 200 mg/kg): 9.5 ± 1.11 grams of mercury displaced
% INHIBITION of edema ([2]; Experiment B, 400 mg/kg): 28%
EDEMA (results expressed in grams of mercury displaced) ([2]; Experiment B, 400 mg/kg): 10.3 ± 1.05 grams of mercury displaced
% INHIBITION of edema ([2]; Experiment C, 100 mg/kg): 18%
EDEMA (results expressed in grams of mercury displaced) ([2]; Experiment C, 100 mg/kg): 9.9 ± 0.67 grams of mercury displaced
antiinflammatory properties / activity [3]: have antiinflammatory activity
